The supplement of paper PMC11451515

What was measured:
Assay in all cases: AUC of viability dose-response curve (% viability x log10 dose units); higher = less sensitive
Conditions in all cases: 48 h
P12-Ichikawa = system: P12-Ichikawa
Summary of the method: (§1)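 Medium-adapted leukemia cells in 1536-well plates, at 500 or 1000 cells/well, were incubated for 48 h at 37°C with library compounds in DMSO at 11 threefold doses from 47 μM to 0.79 nM. CellTiter-Glo One luminescence normalised per plate to DMSO and cell-free wells was fitted with a four-parameter log-logistic model over log10 doses. Area under the curve was integrated from this fit by trapezoidal rule, with curves beyond full viability scaled and failed quality-control curves removed.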

SEM cells = system: SEM cells
Summary of the method: as §1

NOMO1 = system: NOMO1
Summary of the method: as §1

[1] = RPMI 5 mM glucose + 10% dialyzed FBS

| Structure (SMILES) | AUC of viability dose-response curve (P12-Ichikawa; HPLM + 10% dialyzed FBS) | AUC of viability dose-response curve (P12-Ichikawa; RPMI 5 mM glucose + 10% FBS) | AUC of viability dose-response curve (P12-Ichikawa; [1]) | AUC of viability dose-response curve (SEM cells; HPLM + 10% dialyzed FBS) | AUC of viability dose-response curve (SEM cells; RPMI 5 mM glucose + 10% FBS) | AUC of viability dose-response curve (SEM cells; [1]) | AUC of viability dose-response curve (NOMO1; HPLM + 10% dialyzed FBS) | AUC of viability dose-response curve (NOMO1; RPMI 5 mM glucose + 10% FBS) | AUC of viability dose-response curve (NOMO1; [1]) |
| --- | --- | --- | --- | --- | --- | --- | --- | --- | --- |
| CC(C)(C)C1=CC(=C(NC(=O)C/2=C/NC3=C(C=CC=C3)C2=O)C=C1O)C(C)(C)C | 471 | 452 | 455 | 461 | 467 | 470 | 447 | 462 | 464 |
| CCOC(=O)[C@H]1O[C@@H]1C(=O)N[C@@H](CC(C)C)C(=O)NCCC(C)C | 462 | 461 | 469 | 462 | 475 | 462 | 448 | 445 | 456 |
| C[N]1C=C(C=N1)C2=CC=C3N=CC\4=C(N(C(=O)\C=C4)C5=CC6=C(CCN6C(=O)C=C)C=C5)C3=C2 | 404 | 391 | 393 | 359 | 360 | 353 | 359 | 396 | 375 |
| NC(CO)C(=O)NNCc1ccc(O)c(O)c1O (stereo not given) | 450 | 435 | 428 | 450 | 439 | 437 | 448 | 431 | 454 |
| O=C(O)Cc1cccc(OCCCN(Cc2cccc(C(F)(F)F)c2Cl)CC(c2ccccc2)c2ccccc2)c1 | 460 | 442 | 450 | 444 | 437 | 456 | 432 | 461 | 465 |
| COc1cc(Cl)cn2c(-c3cccc(NC4CNC4)n3)cnc12 | 459 | 458 | 464 | 453 | 442 | 440 | 472 | 468 | 454 |
| C[C@@H](N)C1CC[C@@H](CC1)C(=O)NC2=CC=NC=C2 (stereo not given in full) | 469 | 470 | 470 | 438 | 452 | 464 | 472 | 462 | 466 |
| CCOC(=O)O[C@]1(C(=O)OCCl)CC[C@H]2[C@@H]3CCC4=CC(=O)C=C[C@]4(C)[C@H]3[C@@H](O)C[C@@]21C | 467 | 461 | 450 | 460 | 429 | 430 | 459 | 427 | 431 |
| Clc1ccccc1C(c1ccccc1)(c1ccccc1)n1ccnc1 | 448 | 426 | 448 | 425 | 416 | 412 | 451 | 443 | 468 |
| COC(=O)C/1=C(C)/N/C(=C(\C1C2=CC(=CC=C2)[N+]([O-])=O)C(=O)OCCCN3CCC(CC3)(C4=CC=CC=C4)C5=CC=CC=C5)C (stereo not given) | 453 | 429 | 445 | 458 | 439 | 441 | 439 | 441 | 464 |
| C1CN\2C[C@@H](\N=C2S1)C3=CC=CC=C3 | 467 | 462 | 455 | 459 | 396 | 476 | 465 | 442 | 429 |
| Cc1ccc(-c2cc(C(F)(F)F)nn2-c2ccc([S+](N)(=O)[O-])cc2)cc1 | 471 | 463 | 468 | 464 | 460 | 470 | 451 | 468 | 463 |
| CN(C)[C@@H](CCOc1cccc2ccccc12)c1ccccc1 | 455 | 433 | 467 | 400 | 444 | 469 | 433 | 461 | 456 |
| C[C@H](Cc1ccc(O)c(O)c1)[C@@H](C)Cc1ccc(O)c(O)c1 | 443 | 432 | 436 | 394 | 453 | 453 |  |  |  |
| Cc1ccc(/C=N/NC(=O)c2ccccc2Oc2ccccc2)o1 | 452 | 432 | 410 | 452 | 468 | 388 | 456 | 418 | 457 |
| CC[C@@H]1C(=O)N(C)c2cnc(Nc3ccc(C(=O)NC4CCN(C)CC4)cc3OC)nc2N1C1CCCC1 | 187 | 196 | 210 | 205 | 215 | 213 | 259 | 240 | 252 |
| NC\1=N\C(=O)N(\C=C1F)[C@H]2C[C@H](O)[C@@H](CO)O2 | 285 | 279 | 264 | 270 | 359 | 201 | 280 | 360 | 239 |
